Data on 61 compounds can be found in a melting point compilation (Tetko et al.; mined from patent text by program, amines drawn as free bases though some values may be those of a salt).

Residues, ends and D or L forms follow the SMILES beside them. *: point of attachment. Boc = CC(C)(C)OC(=O)*

`Cc1ccc(C)n1-c1cc(F)c(C2=CCSCC2)c(F)c1`: the melting point lay in the range of 118 to 119 °C.
Then `Clc1cccc(OC2CCN(CCc3c[nH]c4ccccc34)CC2)c1`, with 120 to 123 °C.
`CNC(=O)c1cccnc1C` had a melting point of 69 to 72 °C.
The result for `Oc1ccc(Cc2noc3cc(O)ccc23)cc1` reads 178 °C; that for `Fc1ccc(C2(c3ccc(F)cc3)CNC(c3cnccn3)=N2)cc1`, 144 to 146 °C; that for `Fc1ccc(-c2ccc(CCNc3ncnc4nccnc34)cc2)cn1`, 184 to 186 °C.
Then `CC(=Cc1cccc(F)c1)C(=O)O`, with 95 to 97 °C; and `COC(=O)c1c(OC(C)=O)cc2cc(Br)ccc2c1C`, with 78 °C; and `CC1(C(F)(F)F)CC(=O)CC(=O)C1`, with 150 to 152 °C.
Then `CCOC(=O)C(C)c1ccc(N[C@@H](CCC(N)=O)C(=O)O)cc1` (stereo partly specified), with 157 to 158 °C; and `COc1ccc(C=C(C#N)C(N)=O)c([N+](=O)[O-])c1OC`, with 194 to 195 °C.
`CCOC1=CC(C)=C(C(=O)OC)C(C)(C)C1` had a melting point of 67 to 69 °C.
Then `N#Cc1nn(-c2c(Cl)cc(C(F)(F)F)cc2Cl)c(N)c1C#CCO`, with 237 to 239 °C; and `O=C1c2cccc([N+](=O)[O-])c2C(=O)N1c1cccc2ccc(O)cc12`, with 136 to 137 °C; and `O=C(/C=C/CC1CCN(Cc2ccccc2)CC1)c1ccc(Nc2ncnc3c2CCC3)cc1`, with 184 to 185 °C.
The result for `CC(=O)C=Cc1ccc(CCNS(=O)(=O)c2ccc(Cl)cc2)cc1` reads 111 to 113 °C; that for `CC1(C)Oc2ccc(C#N)cc2[C@@H](N2CCCC2=O)[C@@H]1O` (relative stereo), 226 °C.
Then `O=C(CN1CCN(c2ccc(NC(=O)c3ccccc3-c3ccc(C(F)(F)F)cc3)cc2)CC1)NCc1cccc(-c2ccccc2)c1`, with 165 to 167 °C; and `OCc1cnoc1-c1ccc(OC(F)(F)F)cc1`, with 45 to 46 °C.
Compound `Cn1cc(C2c3ccc(Cl)cc3C=Cc3sc(OCCn4ccnc4)nc32)c(=S)[nH]c1=O` (stereo unspecified) yielded a melting point of 190 to 193 °C.
As for `CCNC(=O)N(c1ccc(C(O)(C(F)(F)F)C(F)(F)F)cc1)S(C)(=O)=O`, the melting point was 161 to 164 °C.
The result for `CC(=O)OCc1ccc2oc(=O)c(C(=O)Oc3ccccc3C#N)cc2c1` reads 181 to 183 °C.
Then `CC(=O)NS(=O)(=O)c1ccc(NC(=O)c2ccccc2SSc2ccccc2C(=O)Nc2ccc(S(=O)(=O)NC(C)=O)cc2)cc1`, with 180 to 182 °C; and `O=C(Nc1ccc2ccc(Cl)nc2n1)c1cccc(Br)c1`, with 224 °C; and `CC(C)(O)C(=O)Nc1ccc(Sc2ccc(NS(C)(=O)=O)cc2)cc1Cl`, with 138 to 140 °C.
In the case of `CCCCc1nc(C(F)(F)F)c(C(=O)OCC)[nH]1`, the melting point was 51 to 53 °C.
Then `Cc1cc(=O)n(-c2cc(OC(C)C)c(C)cc2F)c(=O)o1`, with 122 to 124 °C.
Then `O=c1[nH]c(Cc2ccc(OCCc3coc(-c4ccccc4)n3)cc2)no1`, with 154 to 158 °C.
Then `CCC1CC2C3CCC4=CC(=O)CCC4=C3C=CC2(C)C1OC(C)=O` (stereo unspecified), with 95 to 98 °C.
As to `CCCCc1ccc(CNC(=O)OC(C)(C)C)c(=O)n1Cc1ccc(-c2ccccc2-c2nnn[nH]2)cc1`, the melting point was 105 °C.
The result for `CCCCC(CC)COc1ccc(-n2c(C)cc(=O)cc2C)cc1` (stereo unspecified) reads 143 °C.
The result for `CCCc1ccccc1OCCCCCOc1coc(C=O)cc1=O` reads 95 to 96 °C.
Then `CC(C)[C@@H]1C[C@H](O)[C@H](C2CCCCC2)NC1=O`, with 97 to 99 °C; and `Cc1cccc2c1C(=O)N(C1(C(=O)Nc3ccc(Cl)cc3)CCCCC1)C2=O`, with 208 to 209 °C; and `CC(C)CC(N)C(=O)NC(CCCCNC(=O)OC(C)(C)C)C(=O)O` (stereo unspecified) (H-Leu-Lys(Boc)-OH; configuration not given here), with 142 to 143 °C.
With `COc1ccc2cc(C(N)=O)ccc2c1`, the melting point lay within 224 to 226 °C.
Then `O=C1c2c(O)cccc2C(SCC(O)CO)c2cccc(O)c21` (stereo unspecified), with 154 to 155 °C; and `CCCn1nc(-c2sc(C(=O)NC(C)C)nc2-c2ccccc2)ccc1=O`, with 146 to 148 °C.
Then `CN(c1cccc2cc(C3=NCC(CN4CCS(=O)(=O)CC4)S3)[nH]c12)S(=O)(=O)c1cccs1` (stereo unspecified), with 242 °C.
The result for `C[C@H](NC(=O)c1c[nH]c2ncc(-c3cccs3)nc12)C(C)(C)C` reads 311 to 312 °C.
The compound `Cn1cncc1-c1cnc(-c2ccccc2)nc1` had a melting point of 144 °C.
Then `COC(=O)c1nc(-c2ccc(Cl)c(OC)c2F)c(F)c(NC(C)=O)c1Cl`, with 175 to 177 °C; and `CCOC(=O)C(=CNc1cc(C)nn1-c1ccccn1)C(=O)OCC`, with 128 to 131 °C.
The result for `CCCc1nc(C(C)(C)O)c(C(=O)OC2OC(=O)c3ccccc32)n1Cc1ccc(-c2ccccc2C(=O)O)cc1` (stereo unspecified) reads 142 to 144 °C; that for `NC(=O)c1nn(-c2ccc3c(c2)OCO3)c2c1CCc1ccc(NC(=O)c3cc(Cl)ncc3Cl)cc1-2`, 292 to 293 °C.
The compound `Cc1n[nH]c2cc(F)c(C3C(C#N)=C(C(F)F)NC(C(F)F)=C3C#N)cc12` gave a melting point of 282 °C.
The result for `CCOC(=O)c1cc2c(C)cccc2n1CCC(=O)O` reads 133 to 134 °C; that for `NC(=O)CCCOc1cccc(-c2n[nH]c3c2Cc2ccccc2-3)c1`, 200 to 202 °C.
Then `N#Cc1cc(C(=O)NNC(=O)c2occc2-c2ccncc2)ccc1O`, with 280 °C; and `Cc1cc(NC(=O)NC(=O)c2ccccc2Cl)cc(C)c1Oc1ccc(Cl)c2c1CCCC2`, with 224 to 226 °C; and `COc1ccc(Nc2nc3ccccc3c3[nH]c(C4CCCC4)nc23)cc1`, with 106 to 107 °C.
The result for `CC=CCn1c(N(C(C)=O)c2cc(C)cc(C)c2)c(C(C)C)c(=O)[nH]c1=O` reads 103 to 105 °C; that for `O=Cc1ccn(-c2cc3c(cc2C(F)(F)F)[nH]c(=O)c(=O)n3CC(=O)O)c1`, above 250 °C.
The compound `COc1ccc(-n2nnnc2C(F)(F)F)cc1C=O` showed a melting point of 117 °C.
The result for `COc1ccc(Oc2cccc3ncnc(NC(=O)Nc4cccc(Br)c4)c23)cc1` reads 249 to 251 °C; that for `CC1CC(=O)c2cc(N)c(F)cc2O1` (stereo unspecified), 135 to 138 °C; that for `CN1C(=O)N(CC(=O)COC(C)(C)C)C(=O)C1(C)C`, 61 to 63 °C.
`NC(=O)[C@@H]1[C@H](Nc2c(Cl)cnc3[nH]c(-c4cnn(C5CCNCC5)c4)nc23)[C@H]2C=C[C@@H]1C2` came in with a melting point of 203 to 205 °C.
Then `CC(C)N1CCN(c2ccc(-c3[nH]nc4c3C(=O)c3c(NC(=O)NN5CCN(C)CC5)cccc3-4)cc2)CC1`, with 272 °C; and `Cc1ccc2c(c1NC(=O)NCC1(c3ccccc3)CCCC1)OC(C)(C)C2`, with 186 °C; and `COc1ccccc1NC(=O)[C@@H]1Cc2[nH]cnc2CN1C(C)=O`, with 159 °C.

Usually melting point stands for the temperature of the solid-liquid transition.
